Test results reported in article PMC8605905 (Oxidative Medicine and Cellular Longevity, 2021).
Where two headings read alike, the source gives them in different places.

Legend:
[1] = test system: ∆K280 tauRD-DsRed SH-SY5Y cells; assay: Real-time PCR of tauRD-DsRed RNA; format: cell-based, Human; settings: 10 μM
Protocol: (§1) To measure the Aβ-GFP/tauRD-DsRed RNA expression on day 8, total RNA was extracted from collected cells and reverse-transcribed to cDNA (SuperScript III reverse transcriptase; Invitrogen, Waltham, MA, USA). Real-time quantitative PCR was performed using 100 ng of cDNA and the gene-specific TaqMan fluorogenic probe PN4331348 (EGFP) or customized Assays-by-Design probe for DsRed and 4326321E (HPRT1) (StepOnePlus Real-time PCR system, Applied Biosystems, Foster City, CA, USA). The RNA expression level was calculated using the formula 2^ΔCt, ΔCT = CT (control) − CT (target), in which CT indicates the cycle threshold.

caspase 1 [2] = assay: Caspase 1 activity in ΔK280 tauRD-DsRed cells; format: cell-based, Human; settings: 10 μM, ∆K280 tauRD-DsRed cells
Protocol: (§2) Aβ-GFP or ∆K280 tauRD-DsRed SH-SY5Y cells were seeded into 6-well plates (5 × 10^5/well) and treated with retinoic acid, coumarin-chalcone derivatives, and doxycycline as previously described. On day 8, cells were collected and lysates were prepared with six freeze/thaw cycles. The supernatant was collected by centrifugation, followed by measurement of the caspase 1 activity in 50 μg aliquots of cell extract using the ICE fluorometric assay kit (BioVision, Milpitas, CA, USA). Following incubation of the mixture at 37°C for 2 h, fluorescence was measured with excitation/emission wavelengths at 400/505 nm (FLx800 fluorescence microplate reader). In addition, the collected cells were lysed by sonication. Acetylcholinesterase (AChE) activity in the supernatant was determined in 10 μg aliquots of cell extracts using the AChE activity assay kit (Sigma-Aldrich) according to the manufacture's protocol. Finally, the absorbance at 412 nm was measured using a Multiskan GO spectrophotometer (Thermo Fisher Scientific).

[3] = test system: ∆K280 tauRD-DsRed SH-SY5Y cells; assay: High content analysis of ΔK280 tauRD-DsRed fluorescence; format: cell-based, Human; settings: for EC50: Homo sapiens, read-out: Extrapolated EC50 in inhibiting ∆K280 tauRD aggregation (DsRed fluorescence)
Protocol: Human 293-derived Flp-In-293 cells (Invitrogen, Madison, WI, USA) were cultivated in Dulbecco's modified Eagle's medium (DMEM) containing 10% foetal bovine serum (FBS) (Thermo Fisher Scientific). Human neuroblastoma SH-SY5Y-derived Aβ-GFP [23] and ∆K280 tauRD-DsRed cells were kept in DMEM/nutrient mixture F12 (DMEM/F12) containing 10% FBS, 5 μg/ml blasticidin, and 100 μg/ml hygromycin (InvivoGen, San Diego, CA, USA). Doxycycline (Sigma-Aldrich) was applied to induce the expression of Aβ-GFP (5 μg/ml doxycycline) or ∆K280 tauRD-DsRed (2 μg/ml doxycycline).
(§3) On day 1, Aβ-GFP or ∆K280 tauRD-DsRed SH-SY5Y cells were seeded into 96-well plates (2.5 × 10^4/well) and treated with retinoic acid (10 μM; Sigma-Aldrich) to prompt neuronal differentiation. […] On day 8, cells were stained with Hoechst 33342 (0.1 μg/ml; Sigma-Aldrich) for 30 min, and cell images were automatically captured at excitation/emission wavelengths of 482/[…] (GFP fluorescence) or 543/593 nm (DsRed fluorescence) using a high content analysis (HCA) system (Micro Confocal High-Content Imaging System). Image Acquisition and Analysis Software (MetaXpress) (Molecular Devices, Sunnyvale, CA, USA) was used to analyse the images. CellROX Orange (5 μM; Molecular Probes, Eugene, OR, USA) (for Aβ-GFP cells) or dichloro-dihydro-fluorescein diacetate (DCFH-DA, 10 μM; Invitrogen) (for ∆K280 tauRD-DsRed cells) was added to the cells and incubated at 37°C for 30 min. The HCA system was used to measure intracellular ROS at 531/593 nm (CellROX Orange fluorescence) or 482/536 nm (DCFH-DA fluorescence) of excitation/emission wavelengths.

ΔK280 tauRD protein = target: T1, ΔK280 tauRD protein (Homo sapiens, UniProt P10636, DEL597-597); assay: Thioflavin T assay of ΔK280 tauRD aggregation; format: biochemical
T1 construct: E. coli-derived ΔK280 tauRD protein; made in house; host or cells: E. coli
Protocol: The potential of Congo red and coumarin-chalcone derivatives in inhibiting tau misfolding was assessed using the E. coli-derived ΔK280 tauRD protein [21]. In brief, ΔK280 tauRD protein (20 μM) was incubated with the tested compound (1−10 μM) in buffer (150 mM NaCl, 20 mM Tris-HCl (pH 8.0)) at 37°C for 48 h to form aggregates. Thioflavin T (5 μM) was then added, and the mixture was incubated at room temperature for 25 min. The fluorescence intensity of the samples was measured, and the EC50 was computed as described.

[4] = test system: ∆K280 tauRD-DsRed SH-SY5Y cells; assay: High content analysis of neurite outgrowth in ΔK280 tauRD-DsRed cells; format: cell-based, Human; settings: 10 μM
Protocol: On day 1, Aβ-GFP or ∆K280 tauRD-DsRed SH-SY5Y cells were plated into 24-well plates (6 × 10^4/well) followed by addition of retinoic acid. On day 2, cells were treated with coumarin-chalcone derivatives (5 or 10 μM) and with doxycycline (5 or 2 μg/ml) to induce the expression of Aβ-GFP or ∆K280 tauRD-DsRed. On day 8, 4% paraformaldehyde, 0.1% Triton X-100, and 3% BSA were used to fix, permeabilize, and block cells, respectively. Subsequently, the cells were stained with TUBB3 (neuronal class III β-tubulin) primary antibody (1 : 1000; Covance, Princeton, NJ, USA) at 4°C overnight. Goat anti-rabbit Alexa Fluor 555 secondary antibody (1 : 1000; Thermo Fisher Scientific) was then added, followed by a 3 h incubation at room temperature. Following staining nuclei with 4′,-6-diamidino-2-phenylindole (DAPI) (0.1 μg/ml; Sigma-Aldrich), the neurons were imaged by using the HCA system and analysed by using the Neurite Outgrowth Application Module (MetaXpress; Molecular Devices).
To monitor the cAMP-mediated signal transduction pathway, CRE-GFP 293 cells in 6-well plates (1 × 10^6/well) were pretreated with kinase inhibitor H-89 (LC Laboratories, Woburn, MA, USA), KN-62 (Cayman Chemical, Ann Arbor, MI, USA), U0126 (LC Laboratories), or wortmannin (LC Laboratories) (10 μM) for 4 h before forskolin or LM-021 (10 μM) addition for 5 h. GFP fluorescence/protein and total/phosphorylated PKA, CaMKII, ERK, PI3K, and CREB levels were examined. In addition, Aβ-GFP or ∆K280 tauRD-DsRed SH-SY5Y cells were treated with retinoic acid (10 μM) on day 1, followed by the addition of LM-021 (5 or 10 μM) and doxycycline (5 or 2 μg/ml) on day 2, as described. Kinase inhibitors (10 μM) were added on day 6. On day 8, the cells were collected for protein expression analysis of BDNF, BCL2 (BCL2 apoptosis regulator), and BAX (BCL2 associated X, apoptosis regulator), and total/phosphorylated PKA, CaMKII, ERK, PI3K, and CREB. Also, cells were stained with DAPI and assessed for neurite outgrowth as described above.

physchem = format: physicochemical; settings: aqueous buffer
Protocol: The coumarin-chalcone derivatives (E)-4-hydroxy-3-(3-(p-tolyl)acryloyl)-2H-chromen-2-one (LM-016), (E)-3-(3-(4-(dimethylamino)phenyl)acryloyl)-4-hydroxy-2H-chromen-2-one (LM-021), and (E)-3-(3-(furan-2-yl)acryloyl)-4-hydroxy-2H-chromen-2-one (LM-022) were synthesized in our laboratory as previously described and examined by using NMR spectroscopy. The LM-016, LM-021, and LM-022 stayed soluble in cell culture medium at concentrations up to 100 μM.

Aβ-GFP SH-SY5Y cells [5] = assay: High content analysis of Aβ-GFP fluorescence; format: cell-based, Human; settings: for EC50: Homo sapiens, read-out: EC50 in Aβ aggregation inhibition (GFP fluorescence); for Concentration significantly augmenting green fluorescence intensity (Aβ-GFP): day 8
Protocol: Human neuroblastoma SH-SY5Y-derived Aβ-GFP [23] and ∆K280 tauRD-DsRed cells were kept in DMEM/nutrient mixture F12 (DMEM/F12) containing 10% FBS, 5 μg/ml blasticidin, and 100 μg/ml hygromycin (InvivoGen, San Diego, CA, USA). Doxycycline (Sigma-Aldrich) was applied to induce the expression of Aβ-GFP (5 μg/ml doxycycline) or ∆K280 tauRD-DsRed (2 μg/ml doxycycline).
On day 1, Aβ-GFP or ∆K280 tauRD-DsRed SH-SY5Y cells were seeded into 96-well plates (2.5 × 10^4/well) and treated with retinoic acid (10 μM; Sigma-Aldrich) to prompt neuronal differentiation. […] Image Acquisition and Analysis Software (MetaXpress) (Molecular Devices, Sunnyvale, CA, USA) was used to analyse the images. CellROX Orange (5 μM; Molecular Probes, Eugene, OR, USA) (for Aβ-GFP cells) or dichloro-dihydro-fluorescein diacetate (DCFH-DA, 10 μM; Invitrogen) (for ∆K280 tauRD-DsRed cells) was added to the cells and incubated at 37°C for 30 min.

[6] = DPPH radical-scavenging assay; settings: compounds 10–160 μM, 100 μM DPPH, 30 min, n = 3
Protocol: Stable free radical 1,1-diphenyl-2-picrylhydrazyl (DPPH) (Sigma-Aldrich) was applied to test the potential radical-scavenging activity of the coumarin-chalcone derivatives. In brief, the compounds (10–160 μM) were added to an ethanol solution containing 100 μM DPPH. The mixture was vortexed for 15 sec, left to stand for 30 min at room temperature, and scavenging capacity was measured at a wavelength of 517 nm using a Multiskan GO microplate spectrophotometer (Thermo Fisher Scientific, Waltham, MA, USA).

Aβ-GFP SH-SY5Y cells [7] = assay: ROS assay (CellROX Orange) in Aβ-GFP cells; format: cell-based, Human; settings: tested 1.2–5 μM
Protocol: as §3

Aβ42 peptide = target: T2, Aβ42 peptide (Homo sapiens, UniProt P05067); assay: Thioflavin T assay of Aβ aggregation; format: biochemical; settings: Aβ42 5 μM, compound 5–20 μM, 37°C 48 h; read-out: Aβ aggregation inhibition EC50 (Thioflavin T)
T2 construct: containing Aβ42 peptide (5 μM); purchased AnaSpec; host or cells: synthetic
Protocol: In brief, the tested compound (5–20 μM) was added to a buffer solution (150 mM NaCl, 20 mM Tris-HCl (pH 8.0)) containing Aβ42 peptide (5 μM) and incubated at 37°C for 48 h. Thioflavin T (10 μM) (Sigma-Aldrich) then was added, and the mixture was incubated for 5 min at room temperature. Subsequently, the fluorescence intensity was quantified at 420/485 nm of excitation/emission wavelengths using a FLx800 microplate reader (Bio-Tek, Winooski, VT, USA). EC50 was computed as described.

Aβ-GFP SH-SY5Y cells [8] = assay: Real-time PCR of Aβ-GFP RNA; format: cell-based, Human; settings: 5 μM
Protocol: as §1

[9] = test system: Acetylcholinesterase (AChE); assay: AChE activity in Aβ-GFP cells; format: cell-based; settings: 5 μM, vs untreated cells
Protocol: as §2

caspase 1 [10] = assay: Caspase 1 activity in Aβ-GFP cells; format: cell-based, Human; settings: 5 μM, vs untreated cells
Protocol: as §2

[11] = ∆K280 tauRD-DsRed SH-SY5Y cells, tested 2.5–10 μM

T2 sequence (P05067 672-713 limits assumed): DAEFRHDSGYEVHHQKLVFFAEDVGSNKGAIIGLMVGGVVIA
T1 sequence (P10636 with tags, fused parts or gaps DEL597-597): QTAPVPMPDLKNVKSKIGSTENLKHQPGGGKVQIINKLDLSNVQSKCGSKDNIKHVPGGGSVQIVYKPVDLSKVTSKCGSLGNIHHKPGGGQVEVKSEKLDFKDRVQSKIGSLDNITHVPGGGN

| SMILES | ∆K280 tauRD-DsRed RNA level [1] | Caspase 1 activity (caspase 1 [2]) | EC50 [3, 11] [µM] | Concentration significantly elevating DsRed fluorescence intensity ([3]; tested 2.5–10 μM, day 8) [µM] | EC50 (ΔK280 tauRD protein) [µM] | Neurite length and branches [4] | solubility (physchem) [µM] | EC50 (Aβ-GFP SH-SY5Y cells [5]; Aβ-GFP SH-SY5Y cells, tested 1.2–5 μM) [µM] | Concentration significantly augmenting green fluorescence intensity (Aβ-GFP) (Aβ-GFP SH-SY5Y cells [5]; tested 1.2–5 μM) [µM] | EC50 [6] [µM] | Concentration effectively decreasing ROS levels caused by Aβ overexpression (Aβ-GFP SH-SY5Y cells [7]) [µM] | EC50 (Aβ42 peptide) [µM] | Aβ-GFP RNA levels (Aβ-GFP SH-SY5Y cells [8]) | solubility (physchem; cell culture medium, read-out: Concentration up to which the compound stayed soluble) [µM] | AChE activity [9] | EC50 (Aβ-GFP SH-SY5Y cells [5]; SH-SY5Y) [µM] | EC50 ([3]; SH-SY5Y) [µM] | Caspase 1 activity (caspase 1 [10]) |
| --- | --- | --- | --- | --- | --- | --- | --- | --- | --- | --- | --- | --- | --- | --- | --- | --- | --- | --- |
| Nc1c(/N=N/c2ccc(-c3ccc(/N=N/c4cc(S(=O)(=O)O)c5ccccc5c4N)cc3)cc2)cc(S(=O)(=O)O)c2ccccc12 [Congo red, reference compound] | did not significantly alter | lowered caspase 1 activity | 57 | 10 | 10 | successfully ameliorated | – | – | – | – | – | – | – | – | – | – | – | – |
| O=C(/C=C/c1ccco1)c1c(O)c2ccccc2oc1=O [LM-022, (E)-3-(3-(furan-2-yl)acryloyl)-4-hydroxy-2H-chromen-2-one] | – | – | 73 | – | – | – | ≥ 100 | 8.2 | 2.5 to 5 | 143 | 2.5 to 5 | 18 | did not significantly modify | – | – | – | – | – |
| Cc1ccc(/C=C/C(=O)c2c(O)c3ccccc3oc2=O)cc1 [LM-016, (E)-4-hydroxy-3-(3-(p-tolyl)acryloyl)-2H-chromen-2-one] | – | – | – | – | – | – | – | – | 2.5 to 5 | 126 | 2.5 to 5 | 15 | did not significantly modify | ≥ 100 | reduced | 7 | 70 | reduced |
